According to the supplement of paper PMC10307832:

compound: COc1cc2nc(N3CCCN(C)CC3)nc(NC3CCN(Cc4ccccc4)CC3)c2cc1OC + Nc1nc2[nH]cc(CCc3ccc(C(=O)N[C@@H](CCC(=O)O)C(=O)O)cc3)c2c(=O)[nH]1 [Pemetrexed] (partner 0.2 µM); assay: relative viability (nuclei count vs DMSO), 5 days (fraction); higher = more cells survive; conditions: first compound 0.2 µM
How it was run: (§1)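 A single step with final 0.05% Triton X-100, 1% formaldehyde and 1 ug/ml Hoechst fixed the cells and stained nuclei 5 days after treatment. Lung cancer cell lines in 1536-well plates had been treated by pin tool the day after seeding with one drug alone or a fixed anchor-drug dose plus five library-drug doses (not always all listed) in √10 steps, and nuclei were counted on 4× images. Relative viability is the ratio of nuclei in treated wells to nuclei in vehicle wells, taken as the median of duplicate plates.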

Cell Line	relative viability
NCI-H2342	0.81
NCI-H1650	0.389
NCI-H1993	0.602
SW 1573	0.797
NCI-H838	0.259
LCLC-103H	0.495
NCI-H520	0.608
NCI-H2126	0.74
EMC-BAC-2	0.437
NCI-H2085	0.827
HCC-366	0.186
NCI-H1666	0.885
NCI-H596	0.515
LK-2	0.311
NCI-H2087	0.663
SK-MES-1	1.06
H3255	0.563
COR-L23	0.205
NCI-H2170	0.256
HCC-44	0.67
NCI-H522	1.05
SW 900	0.484
NCI-H1395	0.892
NCI-H1792	0.74
NCI-H1793	0.919
NCI-H1563	0.646
NCI-H1944	0.598
NCI-H358	0.174

same assay, conditions: first compound 0.6325 µM

Cell Line	relative viability
NCI-H2342	0.742
NCI-H1650	0.407
NCI-H1993	0.644
SW 1573	0.682
NCI-H838	0.263
LCLC-103H	0.455
NCI-H520	0.622
NCI-H2126	0.623
EMC-BAC-2	0.402
NCI-H2085	1.02
HCC-366	0.151
NCI-H1666	0.785
NCI-H596	0.534
LK-2	0.276
NCI-H2087	0.622
NCI-H1648	0.904
SK-MES-1	0.887
H3255	0.557
COR-L23	0.21
NCI-H2170	0.26
HCC-44	0.636
NCI-H522	0.924
SW 900	0.504
NCI-H1395	0.84
NCI-H1792	0.826
NCI-H1793	1.19
NCI-H1563	0.9
NCI-H1944	0.684
NCI-H358	0.168

same assay, conditions: first compound 2 µM

Cell Line	relative viability
NCI-H2342	0.741
NCI-H1650	0.441
NCI-H1993	0.579
SW 1573	0.733
NCI-H838	0.293
LCLC-103H	0.443
NCI-H520	0.573
NCI-H2126	0.637
EMC-BAC-2	0.413
NCI-H2085	0.943
HCC-366	0.171
NCI-H1666	0.766
NCI-H596	0.503
LK-2	0.296
NCI-H2087	0.686
SK-MES-1	0.904
H3255	0.595
COR-L23	0.208
NCI-H2170	0.271
HCC-44	0.611
NCI-H522	1.09
SW 900	0.491
NCI-H1395	0.824
NCI-H1792	0.985
NCI-H1793	0.945
NCI-H1563	0.879
NCI-H1944	0.566
NCI-H358	0.17

same assay, conditions: first compound 6.325 µM

Cell Line	relative viability
NCI-H2342	0.761
NCI-H1650	0.313
NCI-H1993	0.549
SW 1573	0.623
NCI-H838	0.243
LCLC-103H	0.47
NCI-H520	0.183
NCI-H2126	0.644
EMC-BAC-2	0.486
NCI-H2085	0.87
HCC-366	0.164
NCI-H1666	0.872
NCI-H596	0.468
LK-2	0.273
NCI-H2087	0.656
NCI-H1648	0.791
SK-MES-1	0.495
H3255	0.547
COR-L23	0.199
NCI-H2170	0.274
HCC-44	0.646
NCI-H522	0.78
SW 900	0.505
NCI-H1395	0.635
NCI-H1792	0.752
NCI-H1793	0.797
NCI-H1563	0.896
NCI-H1944	0.587
NCI-H358	0.173

compound: Cc1cc([C@@H](C)Nc2ccccc2C(=O)O)c2nc(N3CCOCC3)cc(=O)n2c1 [AZD6482] + CC(C)C[C@H](NC(=O)[C@H](Cc1ccccc1)NC(=O)c1cnccn1)B(O)O [Bortezomib] (partner 0.002 µM); assay: as above; conditions: first compound 0.08 µM
How it was run: as §1

Cell Line	relative viability
NCI-H727	0.908
NCI-H1650	0.192
EBC-1	0.498
NCI-H1703	0.377
NCI-H1993	0.848
SW 1573	0.92
NCI-H838	0.629
LCLC-103H	0.969
NCI-H520	0.489
NCI-H2126	1.12
EMC-BAC-2	1.02
NCI-H2085	0.824
Calu-6	0.889
HCC-366	0.944
NCI-H1666	0.515
NCI-H596	0.988
NCI-H2087	0.904
H3255	0.738
COR-L23	0.948
IA-LM	1.11
HCC-44	0.799
NCI-H1299	0.916
NCI-H1792	0.856
NCI-H1563	0.75
ABC-1	0.267

same assay, conditions: first compound 0.253 µM

Cell Line	relative viability
NCI-H727	0.868
EBC-1	0.532
NCI-H1703	0.301
NCI-H1993	0.94
SW 1573	0.86
NCI-H838	0.498
LCLC-103H	1.08
NCI-H520	0.223
NCI-H2126	1.09
EMC-BAC-2	1.07
NCI-H2085	0.659
Calu-6	0.973
HCC-366	0.969
NCI-H1666	0.765
NCI-H596	0.95
NCI-H2087	0.912
H3255	0.896
COR-L23	0.945
IA-LM	0.876
HCC-44	1.01
NCI-H1299	1.03
NCI-H1792	0.859
NCI-H1563	0.828
ABC-1	0.306

same assay, conditions: first compound 0.8 µM

Cell Line	relative viability
NCI-H727	1.06
NCI-H1650	0.188
EBC-1	0.463
NCI-H1703	0.331
SW 1573	0.877
NCI-H838	0.793
LCLC-103H	0.921
NCI-H520	0.481
NCI-H2126	1.1
EMC-BAC-2	1.12
NCI-H2085	0.766
Calu-6	0.978
HCC-366	1.06
NCI-H1666	0.737
NCI-H596	0.946
NCI-H2087	0.831
H3255	0.874
COR-L23	1.23
IA-LM	0.953
HCC-44	0.975
NCI-H1299	1.11
NCI-H1792	0.991
NCI-H1563	0.818
ABC-1	0.317

same assay, conditions: first compound 2.53 µM

Cell Line	relative viability
NCI-H1650	0.205
EBC-1	0.358
NCI-H1703	0.191
SW 1573	0.613
NCI-H838	0.602
LCLC-103H	0.742
NCI-H2126	0.851
EMC-BAC-2	0.838
NCI-H2085	0.393
Calu-6	0.823
HCC-366	0.84
NCI-H1666	0.556
NCI-H596	1.01
NCI-H2087	0.661
H3255	0.382
COR-L23	0.678
IA-LM	0.416
HCC-44	1.04
NCI-H1299	0.957
NCI-H1792	0.677
NCI-H1563	0.673
ABC-1	0.336

same assay, conditions: first compound 8 µM

Cell Line	relative viability
NCI-H727	0.887
NCI-H1650	0.202
EBC-1	0.381
NCI-H1703	0.238
NCI-H1993	0.852
SW 1573	0.633
NCI-H838	0.622
LCLC-103H	0.729
NCI-H520	0.306
NCI-H2126	0.786
EMC-BAC-2	0.948
NCI-H2085	0.458
Calu-6	0.889
HCC-366	0.742
NCI-H1666	0.616
NCI-H596	0.985
NCI-H2087	1.04
H3255	0.559
COR-L23	0.828
IA-LM	0.496
HCC-44	0.88
NCI-H1299	1.1
NCI-H1792	0.483
NCI-H1563	0.68
ABC-1	0.408

compound: Cc1cc([C@@H](C)Nc2ccccc2C(=O)O)c2nc(N3CCOCC3)cc(=O)n2c1 [AZD6482] + Cc1nc(Nc2ncc(C(=O)Nc3c(C)cccc3Cl)s2)cc(N2CCN(CCO)CC2)n1 [Dasatinib] (partner 0.075 µM); assay: as above; conditions: first compound 0.08 µM
How it was run: as §1

Cell Line	relative viability
NCI-H2342	0.301
NCI-H1623	0.521
NCI-H727	0.401
NCI-H1650	0.224
NCI-H1993	0.514
SW 1573	0.459
NCI-H838	0.24
LCLC-103H	0.361
NCI-H520	0.154
NCI-H2126	0.542
EMC-BAC-2	0.253
NCI-H2085	0.203
HCC-366	0.659
NCI-H1666	0.801
NCI-H596	0.7
LK-2	0.349
NCI-H2087	0.722
SK-MES-1	0.179
H3255	0.339
COR-L23	0.338
NCI-H2170	0.482
NCI-H522	0.832
SW 900	0.446
NCI-H1395	0.348
NCI-H1792	0.769
NCI-H1793	0.387
NCI-H1563	0.487
NCI-H1944	0.223
ABC-1	0.5
NCI-H358	0.151
